Assay results reported in ChEMBL document CHEMBL1201862, “PubChem BioAssay data set” (2004).
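Values below derive from 48-hour exposures of cells grown in 96-well plates, with endpoints linearly interpolated between the two concentrations bracketing the appropriate inhibition level. GI50: concentration for 50% inhibition of growth.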 Calls of active or inactive are those of the source. Cut-off read from the data, not from the text of the source: active = GI50 up to about 1.1 µM and inactive = higher.

How the values were obtained:
Test in all cases: growth of human tumour cells (NCI), 48 h
786-0 = tested on: 786-0
A498 = tested on: A498
A549 = tested on: A549
ACHN = tested on: ACHN
HCT-116 = tested on: HCT-116
HT-29 = tested on: HT-29
KM12 = tested on: KM12
LOX IMVI = tested on: LOX IMVI
M14 = tested on: M14
NCI-H23 = tested on: NCI-H23
RXF 393 = tested on: RXF 393
SK-MEL-2 = tested on: SK-MEL-2
SK-OV-3 = tested on: SK-OV-3
SNB-19 = tested on: SNB-19
SNB-75 = tested on: SNB-75
SR = tested on: SR
SW-620 = tested on: SW-620
TK-10 = tested on: TK-10
U-251 = tested on: U-251
SF-539 = tested on: SF-539

Measured: GI50

O=C1CCCN1C(=O)CS(=O)(=O)c1ccccc1
inactive: 786-0 > 100 µM | A498 > 100 µM | A549 > 100 µM | ACHN > 100 µM | HCT-116 > 100 µM | HT-29 > 100 µM | KM12 > 100 µM | LOX IMVI > 100 µM | M14 > 100 µM | NCI-H23 > 100 µM | RXF 393 > 100 µM | SK-MEL-2 > 100 µM | SK-OV-3 > 100 µM | SNB-19 > 100 µM | SNB-75 > 100 µM | SR > 100 µM | SW-620 > 100 µM | TK-10 > 100 µM | U-251 > 100 µM

CCO/N=[N+](\[O-])N(CC)CC
inactive: A498 > 100 µM | A549 > 100 µM | ACHN > 100 µM | HCT-116 > 100 µM | HT-29 > 100 µM | KM12 > 100 µM | LOX IMVI > 100 µM | M14 > 100 µM | NCI-H23 > 100 µM | RXF 393 > 100 µM | SF-539 > 100 µM | SK-MEL-2 > 100 µM | SK-OV-3 > 100 µM | SNB-19 > 100 µM | SR > 100 µM | SW-620 > 100 µM | TK-10 > 100 µM

Cc1cccc(-n2c(=S)[nH]c3c(sc(=O)n3-c3ccccc3C)c2=O)c1
inactive: 786-0 > 100 µM | A498 > 100 µM | A549 > 100 µM | ACHN > 100 µM | HCT-116 > 100 µM | HT-29 > 100 µM | KM12 > 100 µM | M14 > 100 µM | NCI-H23 > 100 µM | RXF 393 > 100 µM | SF-539 > 100 µM | SK-MEL-2 > 100 µM | SK-OV-3 > 100 µM | SNB-19 > 100 µM | SNB-75 > 100 µM | SR > 100 µM | SW-620 > 100 µM | U-251 > 100 µM

COc1ccc(/C=N/NC(=O)c2ccccc2Nc2ccccc2C(=O)N/N=C/c2ccc(OC)cc2)cc1
inactive: 786-0 > 100 µM | A498 > 100 µM | A549 > 100 µM | ACHN > 100 µM | HCT-116 > 100 µM | HT-29 > 100 µM | KM12 > 100 µM | LOX IMVI > 100 µM | M14 > 100 µM | NCI-H23 > 100 µM | RXF 393 > 100 µM | SK-MEL-2 > 100 µM | SK-OV-3 > 100 µM | SNB-19 > 100 µM | SNB-75 > 100 µM | SR > 100 µM | SW-620 > 100 µM | TK-10 > 100 µM | U-251 > 100 µM

O=C(Nc1ccc(Cl)cc1Cl)c1c/c(=N\O)c2ccc(O)cc2o1
inactive: 786-0 > 100 µM | A498 > 100 µM | A549 > 100 µM | ACHN > 100 µM | HCT-116 > 100 µM | HT-29 > 100 µM | KM12 > 100 µM | LOX IMVI > 100 µM | M14 > 100 µM | NCI-H23 > 100 µM | RXF 393 > 100 µM | SF-539 > 100 µM | SK-OV-3 > 100 µM | SNB-19 > 100 µM | SNB-75 30.9 µM | SR > 100 µM | SW-620 > 100 µM | TK-10 > 100 µM | U-251 > 100 µM

Cc1cn(C2CC(O)C(COC(=O)NCCC(F)(F)C(F)(F)C(F)(F)C(F)(F)F)O2)c(=O)[nH]c1=O (stereo not drawn)
inactive: 786-0 > 100 µM | A498 > 100 µM | A549 > 100 µM | ACHN > 100 µM | HCT-116 88.5 µM | HT-29 > 100 µM | KM12 > 100 µM | M14 > 100 µM | NCI-H23 > 100 µM | RXF 393 78.5 µM | SF-539 > 100 µM | SK-OV-3 > 100 µM | SNB-19 > 100 µM | SNB-75 54.7 µM | SR > 100 µM | SW-620 > 100 µM | TK-10 > 100 µM | U-251 > 100 µM

COc1c(Cl)nc2ccccc2c1N=[N+]=[N-]
inactive: 786-0 > 100 µM | A498 12.4 µM | A549 > 100 µM | ACHN 43.4 µM | HCT-116 52.7 µM | HT-29 > 100 µM | KM12 > 100 µM | LOX IMVI 48.6 µM | M14 > 100 µM | NCI-H23 92.7 µM | RXF 393 30.1 µM | SF-539 71.9 µM | SK-OV-3 > 100 µM | SNB-19 > 100 µM | SNB-75 63 µM | SR 80 µM | SW-620 > 100 µM | TK-10 70 µM | U-251 > 100 µM

CN(Cc1cnc2c(N)nc(N)nc2n1)c1ccc(Cl)cc1
inactive: A498 31.7 µM | ACHN 26.6 µM | KM12 > 100 µM | M14 73.8 µM | NCI-H23 34 µM | RXF 393 17 µM | SF-539 24.3 µM | SK-MEL-2 29 µM | SK-OV-3 26.2 µM | SNB-19 33.3 µM | SNB-75 12.5 µM | SR 62.2 µM | SW-620 > 100 µM | TK-10 38.7 µM | U-251 > 100 µM

COc1cc2ccc1-c1cc(ccc1O)CC1c3cc4c(cc3CCN1C)Oc1c(OC)cc3c(c1O4)C(C2)N(C)CC3 (stereo not drawn)
inactive: 786-0 1.69 µM | A498 2.19 µM | A549 1.84 µM | ACHN 2 µM | HCT-116 1.46 µM | HT-29 1.73 µM | KM12 1.73 µM | LOX IMVI 1.99 µM | M14 1.82 µM | NCI-H23 1.99 µM | RXF 393 1.67 µM | SF-539 1.79 µM | SK-MEL-2 1.79 µM | SNB-19 1.98 µM | SNB-75 1.8 µM | SR 1.85 µM | SW-620 1.84 µM | TK-10 12.2 µM | U-251 1.69 µM

O=C1c2ccccc2-c2ccc(O)cc21
inactive: 786-0 36.1 µM | A498 21.5 µM | A549 25.9 µM | ACHN 16.6 µM | HCT-116 45.6 µM | HT-29 30.7 µM | KM12 16.8 µM | LOX IMVI 40.1 µM | M14 26.1 µM | NCI-H23 16.9 µM | RXF 393 10.4 µM | SF-539 22.9 µM | SK-MEL-2 21.5 µM | SNB-19 23.9 µM | SNB-75 29 µM | SR 12 µM | SW-620 42.3 µM | TK-10 24.5 µM | U-251 26.7 µM

COC(=O)C(C#N)C1NC(=O)c2ccccc21 (stereo not drawn)
inactive: 786-0 > 100 µM | A498 > 100 µM | A549 > 100 µM | ACHN > 100 µM | HCT-116 > 100 µM | HT-29 > 100 µM | KM12 > 100 µM | LOX IMVI > 100 µM | M14 > 100 µM | NCI-H23 > 100 µM | RXF 393 > 100 µM | SF-539 > 100 µM | SK-OV-3 > 100 µM | SNB-19 > 100 µM | SNB-75 9.71 µM | SR > 100 µM | SW-620 > 100 µM | TK-10 > 100 µM | U-251 > 100 µM

C=C(C)CCC1CC=[N+]([O-])OC1C(C)(C)C (stereo not drawn)
inactive: 786-0 96.4 µM | A498 > 100 µM | A549 20.9 µM | ACHN 68.9 µM | HCT-116 21.8 µM | HT-29 44.5 µM | KM12 28.2 µM | LOX IMVI 18.5 µM | M14 21.1 µM | RXF 393 18.2 µM | SF-539 72.6 µM | SK-OV-3 > 100 µM | SNB-75 31.3 µM | SR 36.3 µM | SW-620 44.5 µM | TK-10 > 100 µM | U-251 46.9 µM

O=C1OC(=O)C2C3C=CC(C12)C1C2C=CC2C31 (stereo not drawn)
inactive: 786-0 > 100 µM | A498 > 100 µM | A549 > 100 µM | ACHN > 100 µM | HCT-116 > 100 µM | HT-29 > 100 µM | KM12 > 100 µM | LOX IMVI > 100 µM | NCI-H23 > 100 µM | RXF 393 > 100 µM | SF-539 > 100 µM | SK-MEL-2 > 100 µM | SK-OV-3 > 100 µM | SNB-19 > 100 µM | SR > 100 µM | SW-620 > 100 µM | TK-10 > 100 µM | U-251 > 100 µM

COC(=O)CC(C(C(=O)OCc1ccccc1)C(C)O)N1C(=O)OCC1c1ccccc1 (stereo not drawn)
inactive: 786-0 > 100 µM | A498 22.2 µM | A549 44.8 µM | ACHN 63.2 µM | HCT-116 > 100 µM | HT-29 > 100 µM | LOX IMVI > 100 µM | M14 > 100 µM | NCI-H23 60.1 µM | RXF 393 95.7 µM | SF-539 > 100 µM | SK-MEL-2 > 100 µM | SNB-19 75.2 µM | SNB-75 20 µM | SR 38.1 µM | SW-620 > 100 µM | TK-10 > 100 µM | U-251 83 µM

CN(C)Cc1cc(/C(=C(\C#N)c2ccccc2)c2ccc(O)cc2)ccc1O
inactive: 786-0 15 µM | A498 32.2 µM | A549 24.6 µM | ACHN 13.9 µM | HCT-116 10.2 µM | HT-29 15.4 µM | KM12 19.9 µM | LOX IMVI 12.1 µM | M14 10.4 µM | NCI-H23 19.1 µM | RXF 393 3.96 µM | SK-MEL-2 17.3 µM | SK-OV-3 27 µM | SNB-19 28.8 µM | SNB-75 17.5 µM | SR 12.9 µM | SW-620 21 µM | TK-10 23 µM | U-251 17.9 µM
